Data as given in patent US10336762B2 (priority 2017, dated 2019).
Where two headings read alike, the source gives them in different places.

Experiments:
IRAK4 enzyme = IRAK4 enzyme (Homo sapiens (Human), UniProt Q9NWZ3); experiment: biochemical; assay type: biochemical; details: IRAK4 enzyme, 500 μM ATP
TNFα = experiment: cells; assay type: cell-based, human; details: LPS-stimulated human monocytes, read-out: EC50 TNF
[1] = Homo sapiens, Monocyte, TNFα content
[2] = Homo sapiens, Monocyte, TNFα by TR-FRET

IRAK4 enzyme, sequence (Q9NWZ3 whole entry): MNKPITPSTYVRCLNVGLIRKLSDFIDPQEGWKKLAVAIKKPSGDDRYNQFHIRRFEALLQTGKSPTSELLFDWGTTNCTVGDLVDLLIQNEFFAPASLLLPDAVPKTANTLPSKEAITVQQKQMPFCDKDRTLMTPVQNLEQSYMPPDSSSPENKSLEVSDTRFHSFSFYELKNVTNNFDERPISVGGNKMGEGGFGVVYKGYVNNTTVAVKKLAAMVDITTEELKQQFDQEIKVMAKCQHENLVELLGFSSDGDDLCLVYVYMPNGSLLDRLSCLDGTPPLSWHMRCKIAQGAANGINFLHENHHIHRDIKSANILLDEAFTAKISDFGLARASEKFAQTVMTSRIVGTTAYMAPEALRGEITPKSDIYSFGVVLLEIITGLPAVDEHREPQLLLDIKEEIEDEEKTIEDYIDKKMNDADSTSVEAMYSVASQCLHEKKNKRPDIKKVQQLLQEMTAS

Q: What does the source list for CC(C)(O)[C@H](F)CNC(=O)c1cnc(-c2ccc3cc(C#N)cnn23)cc1Nc1ccc(-c2cn[nH]c2)cc1 [Example 178, (R)-4-((4-(1H-pyrazol-4-yl)phenyl)amino)-6-(3-cyanopyrrolo[1,2-b]pyridazin-7-yl)-N-(2-fluoro-3-hydroxy-3-methylbutyl)nicotinamide]?
A: IC50 (IRAK4 enzyme; TR-FRET): < 1 nM; EC50 (TNFα; [1]): 10 nM

Q: Which IC50 (IRAK4 enzyme; TR-FRET) does the source give for CC(C)(O)[C@H](F)CNC(=O)c1cnc(-c2ccc3cc(C#N)cnn23)cc1N[C@H]1C[C@@H]2C[C@H]1CN2S(C)(=O)=O [Example 113, 6-(3-cyanopyrrolo[1,2-b]pyridazin-7-yl)-N-((R)-2-fluoro-3-hydroxy-3-methylbutyl)-4-(((1S,4S,5S)-2-(methylsulfonyl)-2-azabicyclo[2.2.1]heptan-5-yl)amino)nicotinamide] here?
A: 22 nM

Q: And the EC50 (TNFα; [1])?
A: 3670 nM

Q: Which IC50 (IRAK4 enzyme; TR-FRET (HTRF)) does the source give for CC(C)(O)[C@H](F)CNC(=O)c1cnc(-c2ccc3cc(C#N)cnn23)cc1NC1Cc2ccncc2C1 (single isomer, unassigned) [Example 676] here?
A: 1 nM

Q: And the EC50 (TNFα; [1])?
A: 81 nM

Q: For CC(C)(O)[C@H](F)CNC(=O)c1cnc(-c2ccc3cc(C#N)cnn23)cc1Nc1ccc(N)nc1 [Example 657, (R)-4-((6-aminopyridin-3-yl)amino)-6-(3-cyano-pyrrolo[1,2-b]pyridazin-7-yl)-N-(2-fluoro-3-hydroxy-3-methylbutyl)nicotinamide], which IC50 (IRAK4 enzyme; TR-FRET (HTRF)) is on record?
A: < 1 nM

Q: And the EC50 (TNFα; [1])?
A: 23 nM

Q: How did the IC50 (IRAK4 enzyme; TR-FRET (HTRF)) turn out when CC1(O)CCCC(Nc2cc(-c3ccc4cc(C#N)cnn34)ncc2C(=O)NC[C@@H](F)C(C)(C)O)C1 (single isomer, unassigned) [Example 528] was run?
A: 1 nM

Q: And the EC50 (TNFα; [1])?
A: 65 nM

Q: What does the source list for CC(=O)NC1CCN(c2ccc(Nc3cc(-c4ccc5cc(C#N)cnn45)ncc3C(=O)NC[C@@H](F)C(C)(C)O)cn2)CC1 [Example 880, (R)-4-((6-(4-acetamido-piperidin-1-yl)pyridin-3-yl)amino)-6-(3-cyano-pyrrolo[1,2-b]pyridazin-7-yl)-N-(2-fluoro-3-hydroxy-3-methylbutyl) nicotinamide]?
A: IC50 (IRAK4 enzyme; TR-FRET): < 1 nM; EC50 (TNFα; [2]): 58 nM

Q: For CC(C)Nc1cc(-c2ccc3cc(C#N)cnn23)ncc1C(=O)NC1CC1CO (stereo not drawn) [Example 45, 6-(3-cyanopyrrolo[1,2-b]pyridazin-7-yl)-N-(2-(hydroxymethyl)cyclopropyl)-4-(isopropylamino) nicotinamide], which IC50 (IRAK4 enzyme; TR-FRET) is on record?
A: 10 nM

Q: And the EC50 (TNFα; [1])?
A: 255 nM

Q: Which results are given for CC(C)(O)[C@H](F)CNC(=O)c1cnc(-c2ccc3cc(C#N)cnn23)cc1N[C@H]1C[C@H](CNS(C)(=O)=O)C1 [Example 831, 6-(3-cyanopyrrolo[1,2-b]pyridazin-7-yl)-N-((R)-2-fluoro-3-hydroxy-3-methylbutyl)-4-(((1r,3R)-3-(methylsulfonamido-methyl)cyclobutyl)amino)nicotinamide]?
A: IC50 (IRAK4 enzyme; TR-FRET): < 1 nM; EC50 (TNFα; [2]): 49 nM

Q: What does the source list for CC(C)(O)[C@H](F)CNC(=O)c1cnc(-c2ccc3cc(C#N)cnn23)cc1NC1CCC(C(=O)N2CC(F)(F)C2)CC1 (stereo partly drawn) [Example 174, 6-(3-cyanopyrrolo[1,2-b]pyridazin-7-yl)-4-(((1r,4R)-4-(3,3-difluoroazetidine-1-carbonyl)cyclohexyl)amino)-N-((R)-2-fluoro-3-hydroxy-3-methylbutyl)nicotinamide]?
A: IC50 (IRAK4 enzyme; TR-FRET): 1 nM; EC50 (TNFα; [1]): 92 nM

Q: With CC(C)(O)[C@H](F)CNC(=O)c1cnc(-c2ccc3cc(C#N)cnn23)cc1N[C@H]1C[C@H](CNC(=O)C23CC(C2)C3)C1 [Example 937, 4-(((1r,3R)-3-((bicyclo[1.1.1]pentane-1-carboxamido)methyl)cyclobutyl)amino)-6-(3-cyanopyrrolo[1,2-b]pyridazin-7-yl)-N-((R)-2-fluoro-3-hydroxy-3-methylbutyl)nicotinamide] as the compound, how does the IC50 (IRAK4 enzyme; TR-FRET) read?
A: 2 nM

Q: And the EC50 (TNFα; [2])?
A: 133 nM

Q: Which results are given for CC(C)(O)[C@H](F)CNC(=O)c1cnc(-c2ccc3cc(C#N)cnn23)cc1Nc1ccc(OC2COC2)nc1 [Example 649, (R)-6-(3-cyanopyrrolo[1,2-b]pyridazin-7-yl)-N-(2-fluoro-3-hydroxy-3-methylbutyl)-4-((6-(oxetan-3-yloxy)pyridin-3-yl)amino)nicotinamide]?
A: IC50 (IRAK4 enzyme; TR-FRET (HTRF)): 21 nM; EC50 (TNFα; [1]): > 10000 nM

Q: Which results are given for CN(C)C(=O)C12CCC(Nc3cc(-c4ccc5cc(C#N)cnn45)ncc3C(=O)NC[C@@H](F)C(C)(C)O)(CC1)CC2 [Example 415, (R)-6-(3-cyanopyrrolo[1,2-b]pyridazin-7-yl)-4-((4-(dimethylcarbamoyl)bicyclo[2.2.2]octan-1-yl)amino)-N-(2-fluoro-3-hydroxy-3-methyl-butyl)nicotinamide]?
A: IC50 (IRAK4 enzyme; TR-FRET (HTRF)): 1 nM; EC50 (TNFα; [1]): 14 nM

Q: COC(=O)NCCNC(=O)c1cnc(-c2ccc3cc(C#N)cnn23)cc1NC12CCC(O)(CC1)CC2 [Example 746, methyl (2-(6-(3-cyano-pyrrolo[1,2-b]pyridazin-7-yl)-4-((4-hydroxy-bicyclo[2.2.2]octan-1-yl)amino)nicotinamido)ethyl)carbamate] was tested. Which IC50 (IRAK4 enzyme; TR-FRET (HTRF)) did it give?
A: 1 nM

Q: And the EC50 (TNFα; [1])?
A: 105 nM

Q: Which IC50 (IRAK4 enzyme; TR-FRET (HTRF)) does the source give for CC(C)(O)[C@H](F)CNC(=O)c1cnc(-c2ccc3cc(C#N)cnn23)cc1NC1CCC(C)(N2CCOCC2)CC1 (single isomer, unassigned) [Example 690] here?
A: 1 nM

Q: And the EC50 (TNFα; TNFα content)?
A: 71 nM

Q: Which results are given for CC(=O)N[C@H]1C[C@@H](Nc2cc(-c3ccc4cc(C#N)cnn34)ncc2C(=O)NC[C@@H](F)C(C)(C)O)C1 [Example 458, 4-(((1s,3S)-3-acetamidocyclobutyl)amino)-6-(3-cyano-pyrrolo[1,2-b]pyridazin-7-yl)-N-((R)-2-fluoro-3-hydroxy-3-methylbutyl)nicotinamide]?
A: IC50 (IRAK4 enzyme; TR-FRET (HTRF)): 3 nM; EC50 (TNFα; [1]): 2470 nM

Q: Which results are given for COc1ccc(Nc2cc(-c3ccc4cc(C#N)cnn34)ncc2C(=O)NC[C@@H](F)C(C)(C)O)cn1 [Example 602, (R)-6-(3-cyanopyrrolo[1,2-b]pyridazin-7-yl)-N-(2-fluoro-3-hydroxy-3-methylbutyl)-4-((6-methoxy-pyridin-3-yl)amino) nicotinamide]?
A: IC50 (IRAK4 enzyme; TR-FRET (HTRF)): < 1 nM; EC50 (TNFα; [1]): 70 nM

Q: How did the IC50 (IRAK4 enzyme; TR-FRET) turn out when CC(C)(O)[C@H](F)CNC(=O)c1cnc(-c2ccc3cc(C#N)cnn23)cc1Nc1ccnnc1 [Example 183, (R)-6-(3-cyanopyrrolo[1,2-b]pyridazin-7-yl)-N-(2-fluoro-3-hydroxy-3-methylbutyl)-4-(pyridazin-4-ylamino)nicotinamide] was run?
A: 6 nM

Q: What about the EC50 (TNFα; [1]) of the same compound?
A: 657 nM

Q: For COC(=O)NCC12CC(Nc3cc(-c4ccc5cc(C#N)cnn45)ncc3C(=O)NC[C@@H](F)C(C)(C)O)(C1)C2 [Example 547, (R)-methyl ((3-((2-(3-cyanopyrrolo[1,2-b]pyridazin-7-yl)-5-((2-fluoro-3-hydroxy-3-methylbutyl)carbamoyl)pyridin-4-yl)amino)bicyclo[1.1.1]pentan-1-yl)methyl)carbamate], which IC50 (IRAK4 enzyme; TR-FRET (HTRF)) is on record?
A: < 1 nM

Q: What about the EC50 (TNFα; [1]) of the same compound?
A: 28 nM

Q: Which results are given for CC(C)(C)OC(=O)N1CC2(CC(Nc3cc(-c4ccc5cc(C#N)cnn45)ncc3C(=O)NC[C@@H](F)C(C)(C)O)C2)C1 [Example 448, (R)-tert-butyl 6-((2-(3-cyanopyrrolo[1,2-b]pyridazin-7-yl)-5-((2-fluoro-3-hydroxy-3-methylbutyl)carbamoyl)pyridin-4-yl)amino)-2-azaspiro[3.3]heptane-2-carboxylate]?
A: IC50 (IRAK4 enzyme; TR-FRET (HTRF)): 32 nM; EC50 (TNFα; [1]): 2040 nM

Q: With CC(C)Nc1cc(-c2ccc3cc(C#N)cnn23)ncc1C(=O)N[C@@H]1CC[C@@H](O)C1 [Example 188, 6-(3-cyanopyrrolo[1,2-b]pyridazin-7-yl)-N-((1R,3R)-3-hydroxycyclopentyl)-4-(isopropylamino) nicotinamide] as the compound, how does the IC50 (IRAK4 enzyme; TR-FRET) read?
A: 8 nM

Q: And the EC50 (TNFα; [1])?
A: 275 nM

Q: Which IC50 (IRAK4 enzyme; TR-FRET (HTRF)) does the source give for CC(C)(O)[C@H](F)CNC(=O)c1cnc(-c2ccc3cc(C#N)cnn23)cc1N[C@H]1C[C@H](S(C)(=O)=O)C1 [Example 443, 6-(3-cyanopyrrolo[1,2-b]pyridazin-7-yl)-N-((R)-2-fluoro-3-hydroxy-3-methylbutyl)-4-(((1r,3R)-3-(methylsulfonyl)cyclobutyl)amino)nicotinamide] here?
A: 1 nM

Q: What about the EC50 (TNFα; [1]) of the same compound?
A: 110 nM

Q: For CC(C)(O)[C@H](F)CNC(=O)c1cnc(-c2ccc3cc(C#N)cnn23)cc1Nc1cnc(C#N)nc1 [Example 596, (R)-4-((2-cyano-pyrimidin-5-yl)amino)-6-(3-cyanopyrrolo[1,2-b]pyridazin-7-yl)-N-(2-fluoro-3-hydroxy-3-methylbutyl) nicotinamide], which IC50 (IRAK4 enzyme; TR-FRET (HTRF)) is on record?
A: 3 nM

Q: And the EC50 (TNFα; [1])?
A: > 10000 nM

Q: Which results are given for COCCCNc1cc(-c2ccc3cc(C#N)cnn23)ncc1C(=O)NC[C@@H](F)C(C)(C)O [Example 133, (R)-6-(3-cyanopyrrolo[1,2-b]pyridazin-7-yl)-N-(2-fluoro-3-hydroxy-3-methylbutyl)-4-((3-methoxypropyl)amino) nicotinamide]?
A: IC50 (IRAK4 enzyme; TR-FRET): 1 nM; EC50 (TNFα; [1]): 91 nM

Q: Which results are given for CNC(=O)c1cnc(-c2ccc3cc(C#N)cnn23)cc1N[C@H]1CCC[C@@H](C(=O)NC)C1 [Example 470, 6-(3-cyanopyrrolo[1,2-b]pyridazin-7-yl)-N-methyl-4-(((1S,3R)-3-(methyl-carbamoyl)cyclohexyl)amino)nicotinamide]?
A: IC50 (IRAK4 enzyme; TR-FRET (HTRF)): 25 nM; EC50 (TNFα; [1]): 440 nM

Q: What does the source list for CC(C)(O)[C@H](F)CNC(=O)c1cnc(-c2ccc3cc(C#N)cnn23)cc1NC1CC2CCC(C1)N2 (stereo partly drawn) [Example 14, 4-(((1R,3r,5S)-8-azabicyclo[3.2.1]octan-3-yl)amino)-6-(3-cyanopyrrolo[1,2-b]pyridazin-7-yl)-N-((R)-2-fluoro-3-hydroxy-3-methylbutyl)nicotinamide]?
A: IC50 (IRAK4 enzyme; TR-FRET): 3 nM; EC50 (TNFα; [1]): 626 nM

Q: Which IC50 (IRAK4 enzyme; TR-FRET) does the source give for CC(C)Nc1cc(-c2ccc3cc(C#N)cnn23)ncc1C(=O)NCC(=O)N1CC(F)(F)C1 [Example 807, 6-(3-cyanopyrrolo[1,2-b]pyridazin-7-yl)-N-(2-(3,3-difluoroazetidin-1-yl)-2-oxoethyl)-4-(isopropylamino) nicotinamide] here?
A: 2 nM

Q: And the EC50 (TNFα; [2])?
A: 75 nM

Q: What does the source list for COC(=O)NC[C@H]1C[C@H](Nc2cc(-c3ccc4cc(C#N)cnn34)ncc2C(=O)NCC(=O)C(C)(C)O)C1 [Example 815, methyl (((1r,3r)-3-((2-(3-cyanopyrrolo[1,2-b]pyridazin-7-yl)-5-((3-hydroxy-3-methyl-2-oxobutyl)carbamoyl)pyridin-4-yl)amino)cyclo-butyl)methyl)carbamate]?
A: IC50 (IRAK4 enzyme; TR-FRET): < 1 nM; EC50 (TNFα; [2]): 15 nM
